Data on five compounds can be found in article PMC6511888, “Synthesis, Biological Evaluation, and Molecular Modeling Studies of New Thiadiazole Derivatives as Potent P2X7 Receptor Inhibitors” (Frontiers in Chemistry, 2019).

What is called IC50 is the concentration that gives 50% inhibition. One may read the CC50 as the concentration at which the toxic effect on the cells reaches its halfway point. A word on the solubility: it is the dissolved amount per volume that the medium holds. The Papp is a coefficient for how fast a substance crosses the barrier.

≈ marks a conversion by molar mass, not a printed value.

One series deals with T1, human P2X7R (Homo sapiens, UniProt Q99572).
T1 construct: expressed in transfected cells; host or cells: HEK-293
T1 sequence (Q99572 1-595): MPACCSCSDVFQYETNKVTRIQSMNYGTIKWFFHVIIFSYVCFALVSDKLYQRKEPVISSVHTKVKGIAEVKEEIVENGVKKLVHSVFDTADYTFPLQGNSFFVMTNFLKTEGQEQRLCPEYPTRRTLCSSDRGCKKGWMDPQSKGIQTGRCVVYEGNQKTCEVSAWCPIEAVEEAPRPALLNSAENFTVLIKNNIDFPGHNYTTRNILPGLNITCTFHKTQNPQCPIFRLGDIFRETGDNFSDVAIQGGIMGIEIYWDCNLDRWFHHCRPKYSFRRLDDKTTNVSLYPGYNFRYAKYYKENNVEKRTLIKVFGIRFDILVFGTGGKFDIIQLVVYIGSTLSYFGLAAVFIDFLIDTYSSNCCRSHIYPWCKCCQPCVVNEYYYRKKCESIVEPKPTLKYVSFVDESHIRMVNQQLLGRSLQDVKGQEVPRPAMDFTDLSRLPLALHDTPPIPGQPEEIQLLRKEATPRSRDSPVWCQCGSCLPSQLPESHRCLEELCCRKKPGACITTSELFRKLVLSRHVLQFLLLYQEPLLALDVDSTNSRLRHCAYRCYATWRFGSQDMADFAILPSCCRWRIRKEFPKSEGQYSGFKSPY
The series is described as follows: Dye uptake assay (ethidium bromide) in HEK-293 cells transfected with hP2X7R. As to conditions: for IC50: ethidium uptake assay, HEK-293 cells transfected with human P2X7R, mean ± SD. The class given is cell-based. Here is the method:
HEK-293 cells expressing human P2X7R were maintained in Dulbecco's modified Eagle's medium (DMEM; Sigma-Aldrich) supplemented with 10% fetal bovine serum (FBS; Prolab, Br) and anti-biotics (50 U/ml penicillin and […] streptomycin) in a humidified 5% CO2 atmosphere at 37°C (Faria et al., [2018]). A total of 5 × 10^5 cells were plated at 37°C in a humidified 5% CO2 atmosphere for 24 h in a 96-well plate for dye uptake or IL-1β release assays.
HEK-293 cells transfected with hP2X7R and mouse peritoneal macrophages were plated at 2.5 × 10^6 or 5 × 10^5 cells/ml, respectively, in 96-well culture plates containing DMEM with 10% FBS and anti-biotics (50 U/ml penicillin and […] streptomycin) in a humidified 5% CO2 atmosphere at 37°C for 24 h (Faria et al., [2018]).
P2X7R antagonist and thiadiazole analogs (1 nM to 0.5 mM) were incubated for 5 min before ATP (5 mM) treatment for 20 min. In the last 5 min of ATP incubation, propidium iodide for macrophages (PI; 750 nM) or ethidium bromide (EB; 25 μM) for HEK-293 cells was added to all wells. PI dye was excited at a wavelength of 530 nm, and its fluorescence emission was read at a wavelength of 590 nm using an M5 plate reader (Molecular Devices). EB dye was excited at a wavelength of 530 nm and emitted at a wavelength of 620 nm.

The nature of series [1]: LDH release assay (toxicity). The class given is cell-based, mouse. Conditions: mouse peritoneal macrophages; for IC50 at 24 h: read-out: Macrophages IC50 (toxic effect); for CC50 at 24 h: mouse, peritoneal macrophages, toxicity measured for 24 h. How it is done:
Mouse peritoneal macrophages (5 × 10^5 cells) and HEK-293 cells transfected with P2X7R (5 × 10^5 cells) were plated in a 96-well-plate for 24 h before the treatment. […] The supernatant collected in this assay was used to measure the presence of LDH in the media using a cytotoxicity detection kit (Sigma kit for LDH) according to the manufacturer's instructions (Faria et al., [2018]).
(In general: LDH in the medium is a marker of cell lysis.)

The nature of series [2]: pH-dependent kinetic solubility. The class given is physicochemical. Conditions: kinetic from dmso stock. Here is the method:
DMSO stock solutions (5 μl) were added into a 995-μl acetonitrile/buffer (1:1) mixture to prepare the calibration standard solutions. The reaction samples were centrifuged (10,000 rpm, 10 min, 25°C) and diluted 1:1 with acetonitrile (Faria et al., [2018]).

Series [3] is described as follows: Stability in human liver microsomes. The class given is in vitro ADME. As to conditions: pH 7.4, read-out: LM stability human (CLint). How it is done:
Thiadiazole 9f stability was evaluated in liver microsomes from male mice and humans according to Faria et al. in 2018 (Faria et al., [2018]). Both solutions contained a final protein concentration of 0.5 mg/ml (0.1 M phosphate buffer) at pH 7.4. Microsomes were preincubated with 9f (1 μM) and DMSO ([…]) at 37°C before NADPH (1 mM) addition. A control for the reaction was a buffer containing 0.1 M phosphate at pH 7.4 in a final volume of 50 μl. Diazepam and verapamil were used as positive controls for mice and humans, respectively. Both types of microsomes were treated with 9f for 0, 5, 15, 30, and 45 min and the negative control [minus Nicotinamide adenine dinucleotide phosphate (NADPH)] for 45 min. To stop the reactions, methanol (50 μl) was added at the appropriate time points, and the samples were centrifuged (1,640 × g) for 20 min at 4°C to […] protein precipitation.
In vitro intrinsic clearance (CLint mic) for the metabolism of 9f in mouse and human liver microsomes was calculated using the equations below:
Half-life (t1/2) (minutes) = 0.693/k (1)
V(μL/mg) = volume of the incubation solution (μl)/protein in the incubation solution (mg) (2)
Intrinsic clearance (CLint) (μl/minutes/mg protein) = V × 0.693/t1/2 (3) according to the manufacturer's instructions.

A further series is described as follows: Caco-2 cell permeability. The class given is in vitro ADME. Set-up: Papp at 60 min: dose or concentration left out as unconfirmed. Conditions: human, Caco-2, pH 7.4; apical to basolateral (A - B); mean ± standard error of three experiments; read-out: Caco-2 apparent permeability (Papp). Here is the method: Corning® Costar® Transwell plates (Sigma-Aldrich, St. Louis, MO, USA) were used for seeding Caco-2 cells at 3 × 10^5 cells/well bathed with DMEM supplemented with 10% FSB according to Faria and collaborator in 2018 (Faria et al., [2018]). This culture was maintained for up to 21 days in a humidified incubator at 37°C and 5% CO2. Thiadiazole analog, vinblastine (poor permeability control), and propranolol (high permeability control) stock solutions, all at a concentration of 100 mM, were prepared in Hanks' balanced salt solution (HBSS) containing 25 mM HEPES at pH 7.4 with 0.5% (v/v) DMSO. Transport buffer (0.3 ml) was added to each well to equilibrate the cells with the transport buffer. A 24-well enhanced recovery plate containing 1 ml of transport buffer (pH 7.4) was substituted for the feeder tray. The transport buffer in the apical wells was removed, and 0.3 ml of a solution containing thiadiazoles 9b, 9c, 9f, or 11c; vinblastine; or propranolol was added. Then, the cells were replaced for incubation for 60 min. Lucifer yellow concentrations in the donor and acceptor wells were measured in the last of this incubation. Lucifer yellow was measured using an M5 plate reader ([…]) at an excitation wavelength of 485 nm and an emission wavelength of 530 nm.
Background: Caco-2 cells form a polarised layer with tight junctions and transporters.

Where [4] appears, read: buffer, aqueous buffer, acidic pH values.
Where [5] appears, read: phosphate buffer, pH 7.4, aqueous buffer.
The mark [6] stands for this setting: dye uptake, HEK-293-transfected cells.

As to `N#Cc1cnn(-c2nnc(-c3ccccc3Cl)s2)c1N` [Compound 9b], half-maximal inhibition against human P2X7R (IC50) required 0.041 ± 0.008 µM. The concentration for half-maximal inhibition (IC50) at 24 h in series [1] was 2270 ± 86 µM. In series [1], this compound gave a 50% cytotoxic concentration (CC50) at 24 h of 2270 µM. The solubility at 2 h is 300 µM (≈ 90.8 µg/mL) in series [2] (setting [4]); above 500 µM in series [2] (buffer, pH 10, aqueous buffer); above 500 µM in series [2] (setting [5]). Also, the microsomal CLint at 1 μM in series [3] was 26.4 µL/min/mg. For the same compound, in the series “Caco-2 cell permeability”, the Papp at 60 min came out at 50.1 ± 1.1 ×10⁻⁶ cm/s.
In the case of `N#Cc1cnn(-c2nnc(-c3ccc(F)cc3)s2)c1N` [Compound 9c], the IC50 against human P2X7R worked out at 0.056 ± 0.002 µM. In addition, the half-inhibitory concentration (IC50) at 24 h in series [1] was found to be 3900 ± 77 µM. In series [1], this compound had a 50% cytotoxic concentration (CC50) at 24 h of 6080 µM. Also, the solubility at 2 h in series [2] (setting [4]) was 300 µM (≈ 85.9 µg/mL); in series [2] (buffer, pH 10, aqueous buffer), above 500 µM; in series [2] (setting [5]), above 500 µM. Further, in series [3], the microsomal CLint at 1 μM turned out to be 18.6 µL/min/mg. Moreover, the Papp at 60 min in “Caco-2 cell permeability” was 56.1 ± 2.1 ×10⁻⁶ cm/s.
For `CCOC(=O)c1cnn(-c2nnc(-c3ccccc3Cl)s2)c1N` [Compound 9f], on human P2X7R (setting [6]), the “Potency relative to A740003 (times greater)” value is listed as “eight” and the “Potency relative to BBG (times greater)” value is on record as “more than 50 times”. The compound also showed an IC50 against human P2X7R of 0.011 ± 0.001 µM. In series [1], the 50% inhibitory concentration (IC50) at 24 h is 6080 ± 102 µM and the midpoint of cytotoxicity, the CC50 at 24 h, lay at 3900 µM. The compound also gave a solubility at 2 h in series [2] (setting [4]) of 300 µM (≈ 105 µg/mL). The same compound showed a solubility at 2 h in series [2] (buffer, pH 10, aqueous buffer) above 500 µM. The compound further yielded a solubility at 2 h in series [2] (setting [5]) above 500 µM. The microsomal CLint at 1 μM in series [3] was found to be 39.5 µL/min/mg. Also, the Papp at 60 min in the series “Caco-2 cell permeability” worked out at 73.4 ± 3.3 ×10⁻⁶ cm/s.
The compound `Cc1cc(C)n(-c2nnc(-c3ccc(F)cc3)s2)n1` [Compound 11c, 2-(3,5-dimethyl-1H-pyrazol-1-yl)-5-(4-fluorophenyl)-1,3,4-thiadiazole] showed an IC50 at human P2X7R of 0.082 ± 0.005 µM. The IC50 at 24 h in series [1] worked out at 3240 ± 201 µM. In series [1], this compound returned a CC50 at 24 h of 3240 µM. Moreover, the solubility at 2 h in series [2] (setting [4]) was 300 µM (≈ 82.3 µg/mL); in series [2] (buffer, pH 10, aqueous buffer) it was above 500 µM; in series [2] (setting [5]) it was above 500 µM. The microsomal CLint at 1 μM in series [3] is 46.7 µL/min/mg. Moreover, the apparent permeability (Papp) at 60 min in “Caco-2 cell permeability” amounted to 77.9 ± 1 ×10⁻⁶ cm/s.
For `COc1ccc(CC(=O)NC(NC(=NC#N)Nc2cccc3ncccc23)C(C)(C)C)cc1OC` (stereo not drawn) [Compound A740003, N-(1-{[(cyanoimino)(5-quinolinylamino)methyl]amino}-2,2-dimethylpropyl)-2-(3,4-dimethoxyphenyl)acetamide], at human P2X7R, half-maximal inhibition (IC50) was put at 0.097 ± 0.018 µM. For the same compound, the half-maximal inhibitory concentration (IC50) at 24 h in series [1] amounted to 325 ± 6 µM.
